Active and inactive are the calls of the source.
Legend:
[1] = target: Procathepsin L (Homo sapiens, UniProt P07711)
[2] = target: Aspartyl aminopeptidase (Plasmodium falciparum 3D7, UniProt Q8I2J3)
[3] = viability of uninfected HEp-2 cells – cell-based, HTS, cytotoxicity control for RSV inhibitor project, dose response (AID 2410); type: functional; conditions: human respiratory syncytial virus
[4] = viability of PTEN-deleted HCT116 cells – cell-based, HCT116 PTEN knockout, dose response (AID 1047); type: functional;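 further: HCT116 colon tumor cells with PTEN knocked out; cells exposed to compound for 60 hours before readout; potency for loss of cell viability measured by luminescence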
[5] = viability of HCT116 lacking mutant beta-catenin – cell-based, human colon tumor, dose response (AID 1045); type: functional;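 further: HCT116 colon tumor cells with beta catenin knocked out; cells exposed to compound for 60 hours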
[6] = test system: INS1; assay: INS-1E survival protection against cytokine death – cell-based, luminescence, retest, dose response (AID 449756); type: functional; conditions: Rattus norvegicus;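 further: cell death triggered by IL-1 beta plus TNF-alpha plus IFN-gamma mixture; protective hits raise ATP signal compared with cytokine alone wells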
[7] = target: X-box-binding protein 1 (Homo sapiens, UniProt P17861); type: functional, Cricetulus griseus;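 further: confirmatory dose-response counter-screen serving a CHOP assay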
Chain of X-box-binding protein 1 (P17861 whole entry): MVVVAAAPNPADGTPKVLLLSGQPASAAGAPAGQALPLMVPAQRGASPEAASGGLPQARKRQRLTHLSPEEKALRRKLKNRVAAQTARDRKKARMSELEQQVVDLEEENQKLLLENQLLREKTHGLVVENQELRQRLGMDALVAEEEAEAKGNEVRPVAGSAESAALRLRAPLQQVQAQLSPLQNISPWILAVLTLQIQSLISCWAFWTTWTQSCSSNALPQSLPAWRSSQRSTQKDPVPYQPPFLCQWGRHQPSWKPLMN

[8] = target: Acyl-homoserine lactone acylase PvdQ (Pseudomonas aeruginosa (strain LESB58), UniProt Q9I194); assay: PvdQ acylase enzyme activity blockers – biochemical, fluorescence, plate reader and imaging, cherry-picks, dose response (AID 493231)
Chain of Acyl-homoserine lactone acylase PvdQ (Q9I194 24-193 limits assumed): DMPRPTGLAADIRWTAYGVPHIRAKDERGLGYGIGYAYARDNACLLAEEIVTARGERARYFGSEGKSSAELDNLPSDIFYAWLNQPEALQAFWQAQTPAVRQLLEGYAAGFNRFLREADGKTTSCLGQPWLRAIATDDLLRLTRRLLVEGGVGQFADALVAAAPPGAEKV
Chain of Acyl-homoserine lactone acylase PvdQ (Q9I194 217-762 limits assumed): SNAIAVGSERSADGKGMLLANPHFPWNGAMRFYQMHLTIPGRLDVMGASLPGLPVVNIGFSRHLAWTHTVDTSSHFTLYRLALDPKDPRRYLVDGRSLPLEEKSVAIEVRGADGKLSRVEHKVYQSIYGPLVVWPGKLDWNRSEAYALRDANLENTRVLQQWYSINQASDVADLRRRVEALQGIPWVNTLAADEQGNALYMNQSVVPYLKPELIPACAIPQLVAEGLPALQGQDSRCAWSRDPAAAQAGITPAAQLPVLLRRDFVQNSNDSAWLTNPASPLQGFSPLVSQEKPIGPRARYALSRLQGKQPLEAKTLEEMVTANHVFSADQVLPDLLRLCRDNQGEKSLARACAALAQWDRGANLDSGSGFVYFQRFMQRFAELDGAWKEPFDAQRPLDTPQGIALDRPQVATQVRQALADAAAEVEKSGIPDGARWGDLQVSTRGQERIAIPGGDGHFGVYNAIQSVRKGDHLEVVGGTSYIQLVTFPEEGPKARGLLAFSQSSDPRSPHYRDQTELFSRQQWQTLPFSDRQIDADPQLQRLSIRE

[9] = cells; type: functional
[10] = target: T1, Estrogen receptor (Homo sapiens, UniProt P03372);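 further: potency for inhibiting coactivator peptide recruitment to the receptor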
T1 sequence (P03372 whole entry): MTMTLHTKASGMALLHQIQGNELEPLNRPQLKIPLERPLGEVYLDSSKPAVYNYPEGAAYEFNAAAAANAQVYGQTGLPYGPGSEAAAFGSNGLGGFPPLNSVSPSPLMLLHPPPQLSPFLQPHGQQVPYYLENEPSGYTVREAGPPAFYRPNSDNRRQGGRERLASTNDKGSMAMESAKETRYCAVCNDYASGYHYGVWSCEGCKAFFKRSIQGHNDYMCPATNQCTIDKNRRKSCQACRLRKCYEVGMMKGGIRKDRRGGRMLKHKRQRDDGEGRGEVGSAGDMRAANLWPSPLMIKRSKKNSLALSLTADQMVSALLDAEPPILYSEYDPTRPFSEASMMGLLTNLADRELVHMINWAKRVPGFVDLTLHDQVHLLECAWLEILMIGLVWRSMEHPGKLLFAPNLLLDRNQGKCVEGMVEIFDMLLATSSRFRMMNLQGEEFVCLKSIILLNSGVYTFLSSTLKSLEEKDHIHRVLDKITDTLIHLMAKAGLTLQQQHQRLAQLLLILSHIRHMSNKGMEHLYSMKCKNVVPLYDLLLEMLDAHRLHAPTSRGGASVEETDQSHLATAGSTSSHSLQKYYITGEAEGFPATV

[11] = antiviral protection against BTV-induced cell death – arbovirus, BSR cells, confirmation (AID 1250); type: functional;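 further: protection from viral cytopathic effect measured as cell viability by ATP luminescence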
[12] = cells
[13] = target: T2, Estrogen receptor beta (Homo sapiens, UniProt Q92731);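 further: recombinant ER-beta bound to coactivator SRC1 peptide in presence of estradiol agonist; inhibitors block coactivator peptide binding and lower the FRET signal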
T2 sequence (Q92731 whole entry): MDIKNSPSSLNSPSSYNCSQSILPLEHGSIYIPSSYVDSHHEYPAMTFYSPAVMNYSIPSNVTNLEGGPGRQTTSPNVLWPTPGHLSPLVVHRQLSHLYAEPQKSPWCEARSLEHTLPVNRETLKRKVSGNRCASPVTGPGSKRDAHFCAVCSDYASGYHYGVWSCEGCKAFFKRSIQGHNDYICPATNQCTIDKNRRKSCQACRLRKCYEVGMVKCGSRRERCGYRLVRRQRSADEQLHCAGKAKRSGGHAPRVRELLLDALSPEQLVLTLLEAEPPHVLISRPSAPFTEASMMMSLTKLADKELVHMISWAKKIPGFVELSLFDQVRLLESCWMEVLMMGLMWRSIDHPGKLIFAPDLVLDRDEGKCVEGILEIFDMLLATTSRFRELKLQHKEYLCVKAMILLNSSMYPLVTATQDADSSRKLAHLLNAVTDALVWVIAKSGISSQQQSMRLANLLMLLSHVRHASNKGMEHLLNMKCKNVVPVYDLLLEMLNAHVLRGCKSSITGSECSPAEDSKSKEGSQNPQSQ

[14] = target: Ephrin type-A receptor 4 (Mus musculus, UniProt Q03137); assay: EphA4 ligand-binding antagonists – biochemical, colorimetric, mouse EphA4, primary screen (AID 689); type: functional
[15] = target: T2, Estrogen receptor beta; assay: blockers of SRC-3 recruitment to ERβ – biochemical, ELISA, streptavidin-HRP readout, orthogonal assay, confirmation (AID 1060)
[16] = target: Induced myeloid leukemia cell differentiation protein Mcl-1 (Homo sapiens, UniProt Q07820); type: functional
Chain of Induced myeloid leukemia cell differentiation protein Mcl-1 (Q07820 whole entry): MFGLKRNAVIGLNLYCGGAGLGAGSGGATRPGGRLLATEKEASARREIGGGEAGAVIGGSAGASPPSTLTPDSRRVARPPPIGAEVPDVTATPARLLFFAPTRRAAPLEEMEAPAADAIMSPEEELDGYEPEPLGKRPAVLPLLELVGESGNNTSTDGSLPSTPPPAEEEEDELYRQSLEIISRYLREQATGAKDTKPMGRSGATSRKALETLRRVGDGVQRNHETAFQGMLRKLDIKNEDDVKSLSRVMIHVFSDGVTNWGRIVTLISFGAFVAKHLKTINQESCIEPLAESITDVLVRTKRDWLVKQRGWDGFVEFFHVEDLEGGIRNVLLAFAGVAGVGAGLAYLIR

[17] = target: Protein Tat (Human immunodeficiency virus type 1 group M subtype B (isolate HXB2)(HIV-1), UniProt P04608); type: functional;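 further: tat binding to TAR RNA read out by fluorescence polarization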
Chain of Protein Tat (P04608 whole entry): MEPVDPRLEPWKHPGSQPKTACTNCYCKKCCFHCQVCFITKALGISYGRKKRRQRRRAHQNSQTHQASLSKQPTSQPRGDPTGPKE

[18] = viability loss in THP-1 monocytes – THP-1 cells, cytotoxicity control for Vif-APOBEC3G degradation inhibitor project, dose response (AID 1117359); type: functional; conditions: THP-1
[19] = target: T3, Nucleotide-binding oligomerization domain-containing protein 1 (Homo sapiens, UniProt Q9Y239); assay: blockers of NOD1 pathway activity – revised, SAR follow-up (AID 2333); type: functional
T3 sequence (Q9Y239 whole entry): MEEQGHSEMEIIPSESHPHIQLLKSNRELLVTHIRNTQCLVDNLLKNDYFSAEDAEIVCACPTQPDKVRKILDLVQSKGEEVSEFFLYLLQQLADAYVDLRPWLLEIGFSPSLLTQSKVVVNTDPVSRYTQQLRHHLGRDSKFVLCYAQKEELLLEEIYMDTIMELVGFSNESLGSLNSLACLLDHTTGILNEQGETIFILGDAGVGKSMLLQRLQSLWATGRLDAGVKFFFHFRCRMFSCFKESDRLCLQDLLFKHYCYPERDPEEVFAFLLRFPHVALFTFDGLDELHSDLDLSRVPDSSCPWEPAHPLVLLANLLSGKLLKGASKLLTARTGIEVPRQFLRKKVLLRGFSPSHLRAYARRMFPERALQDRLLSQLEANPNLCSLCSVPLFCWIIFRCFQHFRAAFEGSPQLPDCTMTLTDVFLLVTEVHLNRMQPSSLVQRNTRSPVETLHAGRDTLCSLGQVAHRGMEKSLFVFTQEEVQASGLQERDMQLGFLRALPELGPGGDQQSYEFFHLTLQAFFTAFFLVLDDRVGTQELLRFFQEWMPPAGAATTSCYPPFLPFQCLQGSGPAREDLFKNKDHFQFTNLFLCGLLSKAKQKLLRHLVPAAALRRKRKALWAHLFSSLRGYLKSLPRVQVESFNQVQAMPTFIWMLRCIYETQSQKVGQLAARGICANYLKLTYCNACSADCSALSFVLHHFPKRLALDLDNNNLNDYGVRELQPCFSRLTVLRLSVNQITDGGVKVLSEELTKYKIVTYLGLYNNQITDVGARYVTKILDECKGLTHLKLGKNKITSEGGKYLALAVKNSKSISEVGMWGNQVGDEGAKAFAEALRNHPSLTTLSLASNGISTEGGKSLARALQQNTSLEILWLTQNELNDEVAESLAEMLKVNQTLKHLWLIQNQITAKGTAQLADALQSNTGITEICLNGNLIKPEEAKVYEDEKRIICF

[20] = test system: HEK293; assay: cells; conditions: Homo sapiens;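 further: cells exposed to compound for 14 hours overnight before viability readout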
[21] = target: Nucleotide-binding oligomerization domain-containing protein 2 (Homo sapiens, UniProt Q9HC29); assay: PubChem AID 2334; type: functional
Chain of Nucleotide-binding oligomerization domain-containing protein 2 (Q9HC29 whole entry, the tested form may be a part): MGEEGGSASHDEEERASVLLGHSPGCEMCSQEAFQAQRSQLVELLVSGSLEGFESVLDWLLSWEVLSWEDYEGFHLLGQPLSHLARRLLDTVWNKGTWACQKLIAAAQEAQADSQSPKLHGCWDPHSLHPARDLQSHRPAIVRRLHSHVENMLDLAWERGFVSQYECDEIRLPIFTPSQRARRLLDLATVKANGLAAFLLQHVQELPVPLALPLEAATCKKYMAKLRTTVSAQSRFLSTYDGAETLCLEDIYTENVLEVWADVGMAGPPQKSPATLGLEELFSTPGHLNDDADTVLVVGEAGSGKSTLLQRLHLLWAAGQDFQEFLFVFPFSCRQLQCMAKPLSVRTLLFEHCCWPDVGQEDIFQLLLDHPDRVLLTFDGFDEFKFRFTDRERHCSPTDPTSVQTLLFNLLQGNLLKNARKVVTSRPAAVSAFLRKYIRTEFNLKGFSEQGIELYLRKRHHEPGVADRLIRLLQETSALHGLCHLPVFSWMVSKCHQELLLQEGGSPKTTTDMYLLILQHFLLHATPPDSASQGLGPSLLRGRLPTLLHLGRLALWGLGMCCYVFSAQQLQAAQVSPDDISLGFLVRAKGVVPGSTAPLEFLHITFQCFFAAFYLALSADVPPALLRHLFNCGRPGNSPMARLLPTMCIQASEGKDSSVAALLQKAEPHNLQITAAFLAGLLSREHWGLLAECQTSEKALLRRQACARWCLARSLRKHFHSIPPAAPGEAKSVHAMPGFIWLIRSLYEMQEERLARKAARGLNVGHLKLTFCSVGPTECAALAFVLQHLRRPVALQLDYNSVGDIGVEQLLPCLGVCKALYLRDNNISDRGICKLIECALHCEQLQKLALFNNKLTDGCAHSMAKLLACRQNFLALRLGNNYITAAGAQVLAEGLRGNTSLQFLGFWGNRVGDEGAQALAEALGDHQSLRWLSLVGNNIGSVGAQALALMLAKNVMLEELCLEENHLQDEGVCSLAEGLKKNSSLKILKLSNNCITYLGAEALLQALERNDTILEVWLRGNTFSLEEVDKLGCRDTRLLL

[22] = target: Tumor necrosis factor (Homo sapiens, UniProt P01375); assay: analog potency on TNFa NF-kB signaling – cell-based, revised, SAR follow-up (AID 2337); type: functional
Chain of Tumor necrosis factor (P01375 whole entry): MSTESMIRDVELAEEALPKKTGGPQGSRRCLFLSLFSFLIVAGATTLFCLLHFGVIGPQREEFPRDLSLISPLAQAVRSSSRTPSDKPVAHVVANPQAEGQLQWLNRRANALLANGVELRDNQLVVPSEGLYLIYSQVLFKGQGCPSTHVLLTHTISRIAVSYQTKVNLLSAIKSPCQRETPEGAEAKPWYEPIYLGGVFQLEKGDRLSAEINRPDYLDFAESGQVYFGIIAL

[23] = target: T4, Tyrosine-protein phosphatase non-receptor type 7 (Homo sapiens, UniProt P35236); assay: redox-active compounds inhibiting HePTP phosphatase – biochemical, fluorescence, mechanism study (AID 2068); type: functional
T4 sequence (P35236 whole entry): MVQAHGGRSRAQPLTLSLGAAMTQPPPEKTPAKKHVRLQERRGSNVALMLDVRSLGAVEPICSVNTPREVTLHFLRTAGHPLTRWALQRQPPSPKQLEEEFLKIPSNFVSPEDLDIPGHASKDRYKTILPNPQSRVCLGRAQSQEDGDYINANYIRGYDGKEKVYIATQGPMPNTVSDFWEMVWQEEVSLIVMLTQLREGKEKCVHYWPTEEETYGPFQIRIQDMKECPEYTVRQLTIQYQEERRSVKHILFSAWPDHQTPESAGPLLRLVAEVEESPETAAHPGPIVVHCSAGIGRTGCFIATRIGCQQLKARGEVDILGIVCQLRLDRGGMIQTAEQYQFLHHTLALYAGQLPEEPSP

[24] = target: T5, RNA-binding protein pos-1 (Caenorhabditis elegans, UniProt G5EF15); assay: disruptors of C. elegans POS-1 RNA interaction – biochemical, fluorescence polarization, dose response (AID 1964);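 further: purified POS-1 fused to maltose binding protein made in E. coli; potency of compounds blocking POS-1 binding to fluorescent RNA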
T5 sequence (G5EF15 whole entry): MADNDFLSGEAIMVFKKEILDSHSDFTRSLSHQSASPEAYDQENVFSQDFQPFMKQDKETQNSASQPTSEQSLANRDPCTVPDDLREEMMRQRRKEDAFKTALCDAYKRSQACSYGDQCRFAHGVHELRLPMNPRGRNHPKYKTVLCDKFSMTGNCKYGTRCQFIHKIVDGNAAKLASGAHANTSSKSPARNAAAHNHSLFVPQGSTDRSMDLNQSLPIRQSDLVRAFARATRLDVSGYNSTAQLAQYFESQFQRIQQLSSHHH

[25] = target: Genome polyprotein (dengue virus type 2, UniProt P29990); assay: flavivirus cap methylation enzyme inhibition – biochemical, confirmation dose response, primary screen (AID 588689); type: functional
[26] = target: T6, Coagulation factor XII (Homo sapiens, UniProt P00748); type: functional;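 further: activated factor XIIa alpha cleaving a fluorogenic AMC peptide substrate; inhibitor potency from loss of enzyme activity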
T6 sequence (P00748 whole entry): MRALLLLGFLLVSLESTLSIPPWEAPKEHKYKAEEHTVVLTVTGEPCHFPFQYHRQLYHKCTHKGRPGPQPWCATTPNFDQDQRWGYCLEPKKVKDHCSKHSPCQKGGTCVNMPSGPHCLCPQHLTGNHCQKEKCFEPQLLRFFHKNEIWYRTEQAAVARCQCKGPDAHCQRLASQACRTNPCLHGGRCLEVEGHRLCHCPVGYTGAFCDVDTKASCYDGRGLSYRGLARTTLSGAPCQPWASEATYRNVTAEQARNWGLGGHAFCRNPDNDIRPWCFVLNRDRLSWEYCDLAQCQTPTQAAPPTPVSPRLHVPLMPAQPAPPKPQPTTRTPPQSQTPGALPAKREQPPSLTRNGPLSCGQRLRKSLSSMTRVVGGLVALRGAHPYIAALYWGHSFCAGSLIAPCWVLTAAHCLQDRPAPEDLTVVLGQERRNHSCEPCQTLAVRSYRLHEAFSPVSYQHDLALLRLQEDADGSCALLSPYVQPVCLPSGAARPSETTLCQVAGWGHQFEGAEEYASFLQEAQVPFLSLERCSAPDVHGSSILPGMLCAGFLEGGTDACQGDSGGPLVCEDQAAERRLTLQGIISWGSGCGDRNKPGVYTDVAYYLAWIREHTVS

[27] = target: T7, Zinc finger protein mex-5 (Caenorhabditis elegans, UniProt Q9XUB2); assay: potency of MEX-5 RNA-binding blockers – biochemical, C. elegans, fluorescence polarization, dose response (AID 1960)
T7 sequence (Q9XUB2 whole entry): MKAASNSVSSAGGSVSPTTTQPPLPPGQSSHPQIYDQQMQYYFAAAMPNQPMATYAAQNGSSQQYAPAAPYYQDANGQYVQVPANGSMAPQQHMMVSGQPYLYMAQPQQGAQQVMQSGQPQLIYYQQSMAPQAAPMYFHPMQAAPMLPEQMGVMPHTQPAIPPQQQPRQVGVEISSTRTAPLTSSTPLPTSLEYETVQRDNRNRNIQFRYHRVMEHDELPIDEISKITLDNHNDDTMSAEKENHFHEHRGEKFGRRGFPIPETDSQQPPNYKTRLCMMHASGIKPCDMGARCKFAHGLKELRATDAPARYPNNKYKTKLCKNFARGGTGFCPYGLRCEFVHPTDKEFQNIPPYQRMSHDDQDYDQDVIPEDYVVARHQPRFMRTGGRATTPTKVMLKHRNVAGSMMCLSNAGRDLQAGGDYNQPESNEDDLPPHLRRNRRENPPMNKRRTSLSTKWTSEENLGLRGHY

Chain of Procathepsin L (P07711 whole entry): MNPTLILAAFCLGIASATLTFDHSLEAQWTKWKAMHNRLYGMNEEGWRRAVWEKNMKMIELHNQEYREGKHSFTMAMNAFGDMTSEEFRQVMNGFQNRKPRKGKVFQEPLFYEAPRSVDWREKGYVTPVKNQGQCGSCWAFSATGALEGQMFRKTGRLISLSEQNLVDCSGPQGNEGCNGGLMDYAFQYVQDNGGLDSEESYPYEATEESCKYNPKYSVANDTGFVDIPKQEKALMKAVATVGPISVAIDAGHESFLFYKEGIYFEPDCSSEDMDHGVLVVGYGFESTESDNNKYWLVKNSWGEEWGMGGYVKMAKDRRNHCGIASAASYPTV
Chain of Aspartyl aminopeptidase (Q8I2J3 whole entry): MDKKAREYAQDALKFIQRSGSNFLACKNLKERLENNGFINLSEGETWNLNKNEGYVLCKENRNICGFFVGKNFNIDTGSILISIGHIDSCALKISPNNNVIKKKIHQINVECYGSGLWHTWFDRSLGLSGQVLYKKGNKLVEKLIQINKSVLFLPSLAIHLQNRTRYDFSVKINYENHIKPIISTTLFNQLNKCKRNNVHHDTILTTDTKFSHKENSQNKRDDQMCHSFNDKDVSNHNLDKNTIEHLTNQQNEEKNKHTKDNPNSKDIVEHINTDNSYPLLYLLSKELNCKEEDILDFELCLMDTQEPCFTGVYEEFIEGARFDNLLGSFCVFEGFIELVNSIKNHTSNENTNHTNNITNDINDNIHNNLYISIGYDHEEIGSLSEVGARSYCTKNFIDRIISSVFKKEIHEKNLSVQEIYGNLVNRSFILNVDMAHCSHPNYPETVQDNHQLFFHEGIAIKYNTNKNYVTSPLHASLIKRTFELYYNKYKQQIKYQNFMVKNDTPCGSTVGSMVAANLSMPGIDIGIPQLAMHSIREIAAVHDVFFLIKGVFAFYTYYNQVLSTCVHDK

## O=C(Nc1cccc(C(F)(F)F)c1)Nn1cnnc1
[1]
  IC50: > 59.6 µM (not active)
[2]
  IC50: 2.32 µM (active)

## CCC1(c2ccc(F)cc2)NC(=O)N(CC(=O)Nc2ccc(-c3nc4ccc(C)cc4s3)cc2)C1=O (centres undefined)
[3]
  CC50: 15.5 µM (active)
[4]
  EC50: 7.37 µM (active)
[5]
  EC50: 12.3 µM (active)
[6]
  AC50: 8.98 µM (active)
[7]
  Absolute IC50 (XBP1): 10 µM

## O=C(OCc1ccc(Cl)c(Cl)c1)c1ccccn1
[8]
  AC50: 29.3 µM (active)
[9]
  IC50: 16.9 µM (active)

## CCCCCc1c(C)nc(Nc2ccccc2)nc1O
[7]
  Absolute IC50 (XBP1): 10 µM

## Cn1c(SCC(=O)Nc2sccc2C#N)nnc1-c1ccccc1
[10]
  IC50: 17.1 µM (active)

## O=C(Nc1ccc(Cl)c(Cl)c1)Nn1cnnc1
[1]
  IC50: > 59.6 µM (not active)
[2]
  IC50: 0.837 µM (active)

## CC(C)C[C@H](NC(=O)c1[nH]cnc1C(=O)N1CCN(C(=O)OC(C)(C)C)CC1)C(=O)OC(C)(C)C
[11]
  IC50: 34.8 µM (active)
[3]
  CC50: 13.3 µM (active)
[12]
  IC50: 1.43 µM (active)

## Cc1onc(-c2c(F)cccc2Cl)c1C(=O)OCC(=O)NCc1ccco1
[10]
  IC50: 38.6 µM (not active)

## CCCSC1=N/C(=C\C=C\c2ccco2)C(=O)S1
[13]
  IC50: 9.71 µM (active)
[14]
  IC50: 11.9 µM (active)
[15]
  IC50: > 50 µM (not active)
[16]
  IC50: 3.97 µM (active)
[17]
  IC50: 3.05 µM (inconclusive)
[18]
  CC50: > 40 µM (active)

## COc1ccc(C(=O)Nc2nc3ccccc3n2Cc2ccc(Cl)cc2)cc1
[19]
  IC50: > 20 µM (inactive)
[20]
  IC50: > 20 µM (inactive)
[21]
  IC50: > 20 µM (inactive)
[22]
  IC50: > 20 µM (inactive)

## CCOC1=CC(=O)OC(c2ccccc2)C1 (centres undefined)
[8]
  AC50: 3.54 µM (active)

## Nc1nc2ccccc2n1C(=O)Cc1ccccc1
[19]
  IC50: > 20 µM (inactive)
[20]
  IC50: > 20 µM (inactive)
[21]
  IC50: > 20 µM (inactive)
[22]
  IC50: > 20 µM (inactive)

## c1coc(-c2nc3ccccc3nc2-c2ccco2)c1
[23]
  IC50: 12.4 µM (active)
[15]
  IC50: < 0.023 µM (not active)
[16]
  IC50: < 0.4 µM (active)
[24]
  EC50: 21.6 µM (active)
[25]
  IC50: > 100 µM (active)
[26]
  IC50: > 50 µM (inactive)
[27]
  EC50: 12 µM (active)

— ChEMBL document CHEMBL1201862, “PubChem BioAssay data set” (2004)
